US8440638B2, “Compositions and methods for modulating calcium flux, glucose homeostasis and apoptosis” (Wisconsin Alumni Research Foundation, priority 2004, dated 2013)

Key:
TRPM2 channel = biological target: T1, TRPM2 channel (Homo sapiens, UniProt O94759); assay: Whole cell patch clamp, TRPM2 channel gating in tet-induced TRPM2-expressing HEK-293 cells; type: cell-based
T1 construct: expressed in transfected cells; host or cells: tetracycline-inducible HEK-293
Description: (§1) Shown is the development of whole cell currents over time in TRPM2-expressing HEK-293 cells. Bath solution was standard ringer's, and pipette solution was Cs-based and included 10 mM EGTA to buffer intracellular Ca^2+ to 10 nM. The patch pipette contained various concentrations of (FIG. 1a) ADPr, (FIG. 1b) OAADPr (FIG. 1c) OAADPr and puromycin as indicated in the figure. FIG. 1d.) Cytoplasmic OAADPr esterase activity is inhibited by puromycin. 200 μM O-[^3H]AADPr and 0-100 μM puromycin were added to cytoplasmic HEK-293 extract for 30 min. Percent hydrolysis of O-[^3H]AADPr to [^3H]acetate was measured as described hereinbelow. FIG. 1e.) Nuclear OAADPr acetyltransferase activity is not inhibited by puromycin. HEK-293 nuclear extract was incubated with 200 μM O-[^3H]AADPr in the presence or absence of 100 μM puromycin for 60 min. The reactions were quenched and resolved by HPLC. The radioactivity in collected fractions was determined by liquid scintillation counting. FIGS. 1f-g.) In vivo detection of OAADPr. Mass spectrum of HEK-293 generated OAADPr (peak m/z of 602.0894; the theoretical m/z for OAADPr is 602.0895) after puromycin treatment, with authentic [^13C]-OAADPr (peak m/z of 603.0851 and isotopic distribution of 604.0878 and 605.0928) as a standard. Peak 599.3691 is from the matrix.
Patch clamp electrophysiology was performed as previously described (23). Briefly, cells were patch clamped in the whole cell configuration at 25° C. using pipettes with resistances ranging from 2-3 MOhms. Currents were recorded on an EPC9 patch clamp amplifier with automatic capacitance compensation using a protocol generating a 50 msec voltage ramp from −100 to +100 mv every two seconds at a holding potential of 0 mv (appropriately corrected for liquid junction potential). Bath solution included 150 mM NaCl, 2.8 mM KCl, 5 mM CsCl, 1 mM CaCl2, 2 mM MgCl2, and 10 mM Hepes (pH 7.2). Pipette solution included 135 mM CsGlutamate, 1 mM MgCl2, 8 mM NaCl, 10 mM Hepes (pH 7.2), and 10 mM EGTA. […]

[1] = tested on: nuclear acetyltransferase; assay: Nuclear OAADPr acetyltransferase (OAADPr-metabolizing) activity in HEK-293 nuclear extract; type: biochemical; details: 100 μM puromycin, 60 min
Description: as §1, with “Mass spectrum of HEK-293 generated OAADPr (peak m/z of 602.0894; the theoretical m/z for OAADPr is 602.0895) after puromycin treatment, with authentic [^13C]-OAADPr (peak m/z of 603.0851 and isotopic distribution of 604.0878 and 605.0928) as a standard. Peak 599.3691 is from the matrix.” left out
Cytoplasmic and nuclear extracts were prepared from HEK-293 cells as previously described (22). […] Aliquots of the supernatant containing [^3H]acetate were removed and analyzed by liquid scintillation counting. […] Radioactivity in each elution fraction was measured by liquid scintillation counting.

HEK-293 cells = assay: Cell viability assay (calcein fluorescence), parental HEK-293 cells; type: cell-based; details: parental HEK-293, 5-50 μM, 16 h
Description: Shown are HEK-293 cells (closed diamond) and HEK-293 cells stably transfected with a tet-controlled TRPM2 construct in the presence (open squares) or absence of (open diamonds) tetracycline. Cells incubated in the presence of 0-50 μM puromycin for 16 h were assayed for viability by measuring fluorescence of calcein in live cells. b.) Removal of calcium rescues cells from puromycin induced cell death. TRPM2-expressing HEK-293 cells were grown in complete DMEM media and 1 μg/ml tetracycline until 80-90% confluent. One set of cells were re-fed with the same complete media (closed diamonds) and the other set of cells were rinsed with PBS and fed with modified media containing 1 μg/ml tetracycline, 5 mM EGTA and without calcium chloride (open squares). […] HEK-293 (close diamond) and TRPM2 expressing HEK-293 cells in the absence (open diamond) or presence of (closed square) tetracycline were exposed to 0-10 μg/ml cycloheximide for 16 h. Cell viability was determined as described in (a).
HEK-293, tet-inducible HEK-293, and CRI-G1 cells were seeded into 6 well plates at a density of 500,000 cells per well. […] Calcein is retained in living, but not dead cells, where it undergoes catalytic conversion into a fluorescent compound Fluorescence in each well was measured in a microplate reader using excitation and emission filters at 485/530 nm, respectively.

OAADPr esterase = assay: Cytoplasmic OAADPr esterase activity in HEK-293 cytoplasmic extract; type: biochemical
Description: as §1
Cytoplasmic and nuclear extracts were prepared from HEK-293 cells as previously described (22). To detect esterase activity (22), cytoplasmic extract was incubated with 200 μM O-[^3H]AADPr in the presence of 0-100 μM puromycin for 30 min. Activated charcoal slurry in PBS, pH 7.0 was added to quench the reaction and bind O-[^3H]AADPr. Samples were vortexed and centrifuged. Aliquots of the supernatant containing [^3H]acetate were removed and analyzed by liquid scintillation counting. To detect nuclear OAADPr metabolizing activity (22), nuclear extract was incubated with 200 μM O-[^3H]AADPr in the presence or absence of 100 μM puromycin for 60 min. The reaction was terminated by addition of TFA to 1%. […] Radioactivity in each elution fraction was measured by liquid scintillation counting.

T1 sequence (O94759 whole entry): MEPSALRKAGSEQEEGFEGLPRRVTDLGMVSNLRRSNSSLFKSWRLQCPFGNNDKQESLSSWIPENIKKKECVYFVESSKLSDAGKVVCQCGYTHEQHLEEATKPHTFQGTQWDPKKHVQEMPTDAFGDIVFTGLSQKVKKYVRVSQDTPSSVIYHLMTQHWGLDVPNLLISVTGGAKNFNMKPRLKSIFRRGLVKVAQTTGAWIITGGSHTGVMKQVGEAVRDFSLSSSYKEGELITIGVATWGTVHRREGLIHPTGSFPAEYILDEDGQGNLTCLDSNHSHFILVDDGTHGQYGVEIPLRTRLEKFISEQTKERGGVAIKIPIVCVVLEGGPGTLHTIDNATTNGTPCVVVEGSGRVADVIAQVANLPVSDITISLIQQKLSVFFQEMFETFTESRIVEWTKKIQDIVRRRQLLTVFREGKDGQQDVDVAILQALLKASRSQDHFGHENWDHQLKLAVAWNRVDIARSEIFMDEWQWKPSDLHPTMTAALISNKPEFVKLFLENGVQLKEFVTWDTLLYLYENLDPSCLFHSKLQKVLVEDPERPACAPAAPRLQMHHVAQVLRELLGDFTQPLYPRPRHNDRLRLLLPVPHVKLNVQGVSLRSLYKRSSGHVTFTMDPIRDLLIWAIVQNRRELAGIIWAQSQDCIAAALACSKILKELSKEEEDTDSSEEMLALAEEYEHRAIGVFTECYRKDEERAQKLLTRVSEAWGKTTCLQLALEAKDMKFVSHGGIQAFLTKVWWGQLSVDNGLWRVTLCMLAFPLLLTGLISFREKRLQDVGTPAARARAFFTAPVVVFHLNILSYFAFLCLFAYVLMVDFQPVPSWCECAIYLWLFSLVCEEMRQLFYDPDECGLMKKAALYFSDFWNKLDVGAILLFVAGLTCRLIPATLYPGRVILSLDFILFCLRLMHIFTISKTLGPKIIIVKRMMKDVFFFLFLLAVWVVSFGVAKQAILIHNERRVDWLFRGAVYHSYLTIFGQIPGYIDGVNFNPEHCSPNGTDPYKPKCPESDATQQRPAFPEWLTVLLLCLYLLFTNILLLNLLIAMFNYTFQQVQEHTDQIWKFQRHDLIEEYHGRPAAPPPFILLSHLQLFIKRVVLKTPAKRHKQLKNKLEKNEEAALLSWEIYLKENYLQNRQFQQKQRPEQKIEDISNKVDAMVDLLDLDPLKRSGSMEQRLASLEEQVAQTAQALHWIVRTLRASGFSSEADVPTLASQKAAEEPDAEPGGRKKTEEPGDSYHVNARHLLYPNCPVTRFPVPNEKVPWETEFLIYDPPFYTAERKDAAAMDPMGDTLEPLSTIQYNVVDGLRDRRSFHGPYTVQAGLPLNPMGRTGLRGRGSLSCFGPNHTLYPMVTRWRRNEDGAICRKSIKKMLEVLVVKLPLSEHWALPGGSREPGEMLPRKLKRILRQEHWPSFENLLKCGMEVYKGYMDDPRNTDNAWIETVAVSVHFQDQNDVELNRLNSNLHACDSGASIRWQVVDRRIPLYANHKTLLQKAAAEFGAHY

Compound: COc1ccc(C[C@H](N)C(=O)N[C@H]2[C@@H](O)[C@H](n3cnc4c(N(C)C)ncnc43)O[C@@H]2CO)cc1 [puromycin]
- effect on TRPM2 channel activity, compound alone (TRPM2 channel; 100 μM puromycin alone, data not shown): no affect
- enhancement of OAADPr gated TRPM2 channel activity (TRPM2 channel; 125-250 μM puromycin in the patch pipette with OAADPr): no significant enhancement
- effect on nuclear OAADPr-metabolizing activity [1]: no effect
- cell death following puromycin treatment (HEK-293 cells): no significant cell death
- inhibition of cytosolic esterase activity (OAADPr esterase; 5 μM puromycin): substantially inhibit
- inhibition of esterase activity (OAADPr esterase; 80 μM puromycin): completely inhibited
- inhibition of OAADPr esterase (OAADPr esterase; 200 μM O-[3H]AADPr, 0-100 μM puromycin, 30 min): potent inhibitor
